Assay: xn = mol fraction of the nth substance listed

COc1ccccc1N + ClC(Cl)(Cl)Cl
viscosity [mPa·s], 100 kPa
Details | x2 = 0.0821 | x2 = 0.1726 | x2 = 0.2547 | x2 = 0.3403 | x2 = 0.4788 | x2 = 0.5789 | x2 = 0.6781 | x2 = 0.7641 | x2 = 0.8447
298.15 K | 5.011 | 4.611 | 4.247 | 3.866 | 3.249 | 2.8 | 2.355 | 1.967 | 1.603
303.15 K | 4.596 | 4.234 | 3.904 | 3.559 | 2.996 | 2.587 | 2.179 | 1.824 | 1.489
308.15 K | 4.218 | 3.892 | 3.593 | 3.28 | 2.768 | 2.394 | 2.02 | 1.694 | 1.385
313.15 K | 3.917 | 3.619 | 3.346 | 3.057 | 2.585 | 2.239 | 1.892 | 1.587 | 1.299
318.15 K | 3.643 | 3.371 | 3.121 | 2.856 | 2.42 | 2.099 | 1.776 | 1.491 | 1.221

COc1ccccc1N + ClC(Cl)C(Cl)Cl
viscosity [mPa·s], 100 kPa
Details | x1 = 0.0911 | x1 = 0.1962 | x1 = 0.2806 | x1 = 0.3816 | x1 = 0.4976 | x1 = 0.6023 | x1 = 0.7116 | x1 = 0.8104 | x1 = 0.9212
303.15 K | 1.786 | 2.165 | 2.464 | 2.82 | 3.224 | 3.584 | 3.957 | 4.291 | 4.66
308.15 K | 1.673 | 2.029 | 2.309 | 2.639 | 3.013 | 3.347 | 3.692 | 4.001 | 4.337
313.15 K | 1.562 | 1.895 | 2.154 | 2.458 | 2.802 | 3.111 | 3.427 | 3.709 | 4.012

COC(C)=O + ClC(Cl)Cl
303.15 K, 101.3 kPa
Details | viscosity [mPa·s]
x1 = 0.1026 | 0.5228
x1 = 0.2027 | 0.525
x1 = 0.3012 | 0.5197
x1 = 0.4009 | 0.5018
x1 = 0.5028 | 0.4782
x1 = 0.6033 | 0.4508
x1 = 0.7158 | 0.4176
x1 = 0.813 | 0.3893
x1 = 0.8983 | 0.3686

COC(C)=O + ClCCCl
303.15 K, 101.3 kPa
Details | viscosity [mPa·s]
x1 = 0.1016 | 0.6754
x1 = 0.199 | 0.6342
x1 = 0.2978 | 0.594
x1 = 0.4014 | 0.5517
x1 = 0.4966 | 0.5168
x1 = 0.5959 | 0.4819
x1 = 0.6976 | 0.4445
x1 = 0.8973 | 0.378

COc1ccccc1N + ClCCCl
viscosity [mPa·s], 100 kPa
Details | x1 = 0.0875 | x1 = 0.1658 | x1 = 0.2536 | x1 = 0.3656 | x1 = 0.4856 | x1 = 0.5902 | x1 = 0.6816 | x1 = 0.7704 | x1 = 0.8841
303.15 K | 1.101 | 1.438 | 1.814 | 2.291 | 2.797 | 3.235 | 3.613 | 3.98 | 4.448
308.15 K | 1.037 | 1.353 | 1.704 | 2.148 | 2.617 | 3.022 | 3.372 | 3.711 | 4.139
313.15 K | 0.974 | 1.27 | 1.596 | 2.004 | 2.436 | 2.808 | 3.13 | 3.439 | 3.829

COCCOC + Clc1ccccc1
298.15 K, 101 kPa
Details | viscosity [mPa·s]
x1 = 0.1219 | 0.721
x1 = 0.2379 | 0.685
x1 = 0.3487 | 0.649
x1 = 0.4543 | 0.611
x1 = 0.5554 | 0.573
x1 = 0.652 | 0.537
x1 = 0.7445 | 0.503
x1 = 0.8332 | 0.47
x1 = 0.9183 | 0.439
